Measured values as given in publication PMC9604483, “Crystal Structure of CYP3A4 Complexed with Fluorol Identifies the Substrate Access Channel as a High-Affinity Ligand Binding Site” (International Journal of Molecular Sciences, 2022).
Read-outs that look alike come from different tables or passages of the source.

Assays:
[1] = biological target: T1, T224A CYP3A4 (Homo sapiens, UniProt P08684, T224A); assay: Spectral (absorbance) equilibrium titrations of fluorol with CYP3A4; assay type: binding
T1 construct: made in house
T1 sequence (P08684 with tags, fused parts or gaps T224A): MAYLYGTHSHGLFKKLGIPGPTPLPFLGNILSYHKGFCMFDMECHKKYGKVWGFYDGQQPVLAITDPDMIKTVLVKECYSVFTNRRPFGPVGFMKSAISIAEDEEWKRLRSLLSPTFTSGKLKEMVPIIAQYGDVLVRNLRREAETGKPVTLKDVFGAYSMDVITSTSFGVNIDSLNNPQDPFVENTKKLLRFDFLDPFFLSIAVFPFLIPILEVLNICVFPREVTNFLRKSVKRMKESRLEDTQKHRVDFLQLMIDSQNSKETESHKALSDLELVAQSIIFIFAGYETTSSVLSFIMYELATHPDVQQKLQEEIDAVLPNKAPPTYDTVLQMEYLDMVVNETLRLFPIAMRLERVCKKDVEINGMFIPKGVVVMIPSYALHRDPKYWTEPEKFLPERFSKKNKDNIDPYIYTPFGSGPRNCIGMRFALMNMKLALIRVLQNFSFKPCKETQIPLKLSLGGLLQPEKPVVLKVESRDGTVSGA
Method: (§1) Because fluorol strongly absorbs in the Soret region (Figure 3A), we conducted reverse rather than direct titrations by adding small amounts of CYP3A4 to the experimental cuvette with 3 μM fluorol solution and to a buffer-containing reference cuvette. Based on the difference absorbance spectra, two spectral phases were distinguished. During the first phase, when [CYP3A4] < 0.5 μM and [fluorol]:[CYP3A4] […], spectral perturbations were detected only in the Soret band (red spectra in Figure 3B,C). The lack of changes in the 380–390 nm region implies that the heme remained in a low-spin state. At [CYP3A4] > 0.5, a decrease in the Soret absorption was accompanied by the appearance of a 385 nm peak, indicating a low-to-high spin transition in the heme. For WT CYP3A4, the first spectral phase was more pronounced, with a ~3-fold larger decrease in the Soret band, whereas the 385 nm peak formed during the second phase was ~20% higher compared to that in the T224A mutant. The difference in the total absorbance change is better seen in Figure 3D, where titration plots for WT and T224A CYP3A4 are compared. The best fittings to the binding isotherms were obtained with a two-binding-site model.
(§2) Spectral Titrations—Equilibrium ligand binding to CYP3A4 was monitored using a Cary 300 spectrophotometer at 23 °C in 50 mM phosphate, pH 7.4, containing 0.6 mg/mL β-cyclodextrin (Santa Cruz Biotechnology, Dallas, TX, USA), using a 10 mm light path cuvette. Ten millimolar stock of fluorol (2-butyl-6-(butylamino)-1H-benzo[de]isoquinoline-1,3(2H)-dione; Exciton, Dayton, OH, USA) dissolved in methanol (ε440 nm = 14.0 mM^−1·cm^−1) was diluted with DMSO to prepare 1–3 mM working solutions. During spectral titrations, small aliquots of WT or T224A CYP3A4 were added to the experimental cuvette with a 3 μM fluorol solution (made from 1 mM stock in DMSO) and to the reference cuvette that contained buffer and the same amount of solvent. Difference absorbance spectra were recorded 5–10 min after fluorol addition, when no further spectral perturbations could be detected. The observed absorbance changes (peak-to-trough difference) were plotted vs. […] and fitted using a nonlinear regression analysis to derive dissociation constants.

[2] = biological target: T2, WT CYP3A4 (Homo sapiens, UniProt P08684); assay: as above; assay type: binding
T2 construct: made in house
T2 sequence (P08684 with tags, fused parts or gaps): as the sequence (P08684 with tags, fused parts or gaps T224A) above, with A204T counted along it
Method: as §1, §2

[3] = biological target: T1, T224A CYP3A4; assay: Equilibrium fluorescence titrations of fluorol with CYP3A4; assay type: binding; conditions: for Kd: read-out: Kd, fluorometric
Source text: (§3) Equilibrium fluorescence titrations were used as an alternative approach for Kd determination. One advantage of fluorol is a large Stokes shift (difference between the absorption and emission maxima; Figure S1B) and sensitivity to environment, as emission becomes more intense and blue-shifted when polarity of the medium decreases (Figure S1C). Moreover, spectral overlap between the emission band of fluorol and Q-bands of CYP3A4 enables fluorescence resonance energy transfer (FRET) to the heme. This process dominates during complex formation with CYP3A4, because emission is decreased rather than enhanced when fluorol transfers from an aqueous media to a more hydrophobic protein environment. One complication that we encountered during fluorescence measurements was a nonspecific decrease in emission, presumably due to adhesion of fluorol to plastic pipette tips. To overcome this problem, before each titration, small amounts of buffer were added to fluorol solution in 1–2 μL increments (8–10 additions; <2% of volume change) and mixed using the same low-retention pipette tip. When no further changes in fluorescence intensity were observed, the same tip was used for addition and mixing of CYP3A4 aliquots (Figure 4A). […] This means that the low-affinity site in T224A CYP3A4 is less solvated and/or lies closer to the heme.
(§4) As a result, in GS8-bound CYP3A4, fluorol might still be able to bind to the channel, albeit in a different orientation (Figure S2C). […] Thus, regardless of what ligand is bound, only the low-affinity site was available for fluorol in both WT and T224A CYP3A4.
(§5) Fluorescence measurements—Equilibrium fluorescence titrations were conducted on a Hitachi F-7000 fluorescence spectrophotometer at 23 °C in 50 mM phosphate buffer, pH 7.4, containing 0.6 mg/mL β-cyclodextrin. Fluorol solution (1 μM) was first titrated with small amounts of buffer using a low-retention plastic pipette tip until no further changes in fluorescence were detected (λex = 440 nm); then, the same tip was used for CYP3A4 additions (6 μM final concentration). […] CYP3A4-dependent changes in fluorescence intensity were plotted vs. CYP3A4 concentration, and Kd values were derived from nonlinear regression fittings.

[4] = biological target: T2, WT CYP3A4; assay: as above; assay type: binding
Source text: as §3, §4, §5

[5] = Fluorol solubility/aggregation monitored by emission changes; assay type: physicochemical; conditions: 50 mM potassium phosphate, pH 7.4; with or without 0.6 mg/mL β-cyclodextrin
Method: In our working solution (50 mM potassium phosphate, pH 7.4), dependence of emission intensity on fluorol concentration was linear only within the 0.1–4 μM range (Figure S1A). Addition of 0.6 mg/mL β-cyclodextrin, reported to improve solubility of fluorol, made no difference. For consistency, β-cyclodextrin was included in the assay buffers, while the working concentration of fluorol was limited to 3 μM to avoid/minimize artefacts associated with fluorol aggregation.

[6] = biological target: CYP3A4 (Homo sapiens, UniProt P08684); parameters: method as in PMID 22194603; conditions: prior study, cited from earlier work; for Kd: up to 60 μM fluorol
Chain of CYP3A4 (P08684 whole entry): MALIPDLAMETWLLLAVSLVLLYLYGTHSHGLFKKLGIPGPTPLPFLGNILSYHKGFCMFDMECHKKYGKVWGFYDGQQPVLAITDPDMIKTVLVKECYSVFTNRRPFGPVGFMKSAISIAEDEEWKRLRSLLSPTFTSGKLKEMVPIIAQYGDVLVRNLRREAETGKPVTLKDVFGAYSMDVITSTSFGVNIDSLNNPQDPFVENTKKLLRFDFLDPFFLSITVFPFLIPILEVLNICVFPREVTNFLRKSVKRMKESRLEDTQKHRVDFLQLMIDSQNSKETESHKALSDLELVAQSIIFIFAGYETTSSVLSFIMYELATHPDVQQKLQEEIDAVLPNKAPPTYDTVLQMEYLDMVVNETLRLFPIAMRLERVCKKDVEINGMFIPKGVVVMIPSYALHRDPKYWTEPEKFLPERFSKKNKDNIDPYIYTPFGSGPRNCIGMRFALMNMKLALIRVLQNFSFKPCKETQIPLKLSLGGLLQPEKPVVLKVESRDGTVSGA

Decrease in affinities when the hydroxyl group in Thr224 is eliminated ([1]; T224A vs WT, spectrophotometric Kd): 25–37%
Kd at 3 μM ([1]; human, ligand-free T224A mutant CYP3A4 protein in buffer, pH 7.4, ligand-free T224A CYP3A4, read-out: Kd, spectrophotometric, low-affinity site): 6600 ± 800 nM
Percentage of the absorbance change due to binding of fluorol to the high-affinity site ([1]; ligand-free T224A CYP3A4): 14%
Kd ([1]; ligand-free T224A CYP3A4, read-out: Kd, spectrophotometric, high-affinity site): 670 ± 120 nM
Difference in affinity between the two independent fluorol binding sites ([2]; WT and T224A CYP3A4, spectrophotometric Kd): 8–10 fold
Decrease in the Soret band during first spectral phase, WT relative to T224A ([2]; [CYP3A4] < 0.5 μM): ~ 3 fold
Height of 385 nm peak formed during second phase, WT compared to T224A ([2]; higher in WT): ~ 20%
Kd at 3 μM ([2]; human, ligand-free WT CYP3A4 protein in buffer, pH 7.4, read-out: Kd, spectrophotometric, low-affinity site): 4200 ± 500 nM
Percentage of the absorbance change due to binding of fluorol to the high-affinity site ([2]; ligand-free WT CYP3A4): 28%
Kd ([2]; ligand-free WT CYP3A4, 3 μM fluorol, 23 °C, 50 mM phosphate pH 7.4, 0.6 mg/mL β-cyclodextrin, read-out: Kd, spectrophotometric, high-affinity site): 500 ± 40 nM
Ligand-dependent decrease in emission change ([3]; GS8-bound T224A CYP3A4): 7%
Kd ([3]; T224A CYP3A4 in presence of 0.4 μM GS8, one-site model): 1600 ± 200 nM
Kd ([3]; T224A CYP3A4 in presence of 0.4 μM RIT, one-site model): 3500 ± 300 nM
Kd ([3]; T224A CYP3A4 in presence of 20 μM PRG, one-site model): 1800 ± 200 nM
Ligand-dependent increase in emission change ([3]; T224A CYP3A4 in the presence of progesterone): 20%
Fluorescence decay in T224A relative to WT ([3]; larger in T224A, equilibrium titration): ~ 20%
Kd ([3]; ligand-free T224A CYP3A4, only a low-affinity site detected): 2000 ± 300 nM
Ligand-dependent decrease in emission change ([3]; ritonavir-bound T224A CYP3A4): 20%
Reduction of emission quenching ([4]; GS8-bound WT CYP3A4 vs ligand-free): 10%
Kd ([4]; WT CYP3A4 in presence of 0.4 μM GS8, one-site model, read-out: Kd, fluorometric): 2100 ± 300 nM
Kd ([4]; WT CYP3A4 in presence of 0.4 μM RIT, one-site model, read-out: Kd, fluorometric): 4800 ± 600 nM
Kd ([4]; WT CYP3A4 in presence of 20 μM PRG, one-site model, read-out: Kd, fluorometric): 2400 ± 200 nM
Kd at 1 μM ([4]; human, ligand-free WT CYP3A4 protein in buffer, pH 7.4, ligand-free WT CYP3A4, read-out: Kd, fluorometric, low-affinity site): 2400 ± 400 nM
Percentage of the fluorescence change due to binding of fluorol to the high-affinity site ([4]; ligand-free WT CYP3A4): 25%
Kd ([4]; ligand-free WT CYP3A4, 1 μM fluorol, 23 °C, pH 7.4, read-out: Kd, fluorometric, high-affinity site): 150 ± 30 nM
Reduction of emission quenching ([4]; ritonavir-bound WT CYP3A4 vs ligand-free): 30%
Concentration range with linear dependence of emission intensity (no aggregation) [5]: 100 to 4000 nM
Structure (SMILES): CCCCNc1ccc2c3c(cccc13)C(=O)N(CCCC)C2=O [fluorol, 2-butyl-6-(butylamino)-1H-benzo[de]isoquinoline-1,3(2H)-dione]
Kd ([6]; read-out: Kd, high-affinity site (peripheral area)): ~3000 nM
Kd ([6]; read-out: Kd, low-affinity area (catalytic cavity)): 10000 nM
Hill coefficient [6]: 1.93
